“Also recorded” adds a separate entry of the source.
Key:
Format in all cases: cell-based, human
[1] = system: immortal MDAH041 cells; assay: Western blot protein expression after 5-aza-dC, immortal MDAH041; conditions: for p16^INK4a protein upregulation: 5-aza-CdR-treated vs untreated immortal MDAH041; for p21 protein levels: 5-aza-dC treatment of immortal MDAH041
Description: Twenty μg of cell extract was boiled for 5 minutes in sample buffer, electrophoresed on a 15% SDS-polyacrylamide gel, and transferred to nitrocellulose. […] The anti-mouse IgG was incubated with the blot for 1 hour at room temperature. The signal was detected by enhanced chemiluminescence. […] Louis, Mo.). Lysates were incubated on ice for 30 minutes followed by centrifugation at 10,000×g. Protein was quantitated using the Bradford Reagent (Sigma, St. Louis, Mo.). Equal amounts of protein were electrophoresed in an appropriate percentage SDS-polyacrylamide gel (SDS-PAGE) and transferred to nitrocellulose membranes. The membranes were incubated with antibodies as indicated. […] The western blots were then incubated with a horseradish peroxidase-conjugated secondary and developed using SuperSignal West Pico (Pierce, Rockford, Ill.). As a control, parallel western blots were probed with α-Tubulin.

[2] = system: immortal MDAH087 cell lines; assay: Senescence phenotype (morphology, senescence-associated β-galactosidase), immortal MDAH087 cell lines; conditions: 5-aza-dC treatment of immortal MDAH087 cell lines
[3] = system: immortal MDAH041 cells; assay: Senescence phenotype (morphology, senescence associated β-galactosidase at pH 6), immortal MDAH041; conditions: immortal MDAH041 high passage treated with 5AZA-dC (1 μM days 1, 3, 5)
Description: The MDAH041 (p53 frameshift mutation) cell line was derived from primary fibroblasts obtained by skin biopsy from patients with LFS. […] All cells were grown in modified Eagles medium (MEM, Gibco BRL, MD, USA) with 10% fetal calf serum and antibiotics. The CRL1502 cell line was derived from primary fibroblasts obtained by skin biopsy from a normal donor (ATCC 1502, Rockville, Md., USA).

[4] = system: nonimmortal cells; assay: Senescence-like state in nonimmortal cells after 5Aza-dC; conditions: nonimmortal cells treated with 5Aza-dC
[5] = system: normal skin fibroblast cell line 1502 (CRL-1502); assay: Q-RT-PCR gene expression, normal fibroblasts 1502 treated or untreated with 5-aza-CdR; conditions: before and after 5azaCdR
[6] = Western blot, listed as 5AZA-dC
[7] = Western blot, after 5-aza-dC treatment, MDAH041
[8] = Western blot, immortal MDAH041 treated with 5-aza-dC

In the case of `Nc1ncn([C@H]2C[C@H](O)[C@@H](CO)O2)c(=O)n1` [5-aza-dC, 5-aza-2′-deoxycytidine], the “p16^INK4a protein upregulation” value ([1]; Western blot, listed as 5-aza-CdR) is reported as “over 500 fold”, the “p16^INK4a protein upregulation” value [1, 6] is reported as “approximately 500 fold” and the p21 protein levels ([1]; Western blot) is reported as “protein expression of both was induced”. For the same compound, the p21 protein levels [1, 6] was “not regulated”, the IGFBP4 protein [1, 7] was “slight induction; also recorded: little to no induction” and the IGFBPrP1 protein [1, 7] was “little to no induction”. For the same compound, the “p16^INK4a protein expression” value [1, 8] was “protein expression of both was induced”, the “protein levels of STAT1α” value [1, 8] was “increased in response to treatment” and the IGFBP3 protein levels ([1]; Western blot, response to 5-aza-dC, MDAH041) was “increased in response to 5-aza-dC”. For the same compound, the STAT1 protein upregulation ([1]; immortal cells, 5AZA-dC treatment) was 4.7 fold, the “senescent phenotype of treated cells” value [2] was “resulted in a flat senescence-like morphology and the activation of the senescence-associated β-galactosidase activity” and the “senescent phenotype of treated cells” value [3] was “had flat morphology, contained lipofuscin granules, and showed senescence associated β-galactosidase activity at pH 6”. The “induction of senescence-like state” value [4] was “does not result in an induction of an senescence-like state”, the “(2-5′) oligoadenylate synthetase E gene OAS1 expression, 1502 vs. 1502 5aza” value ([5]; ↑ increase) was 2↑ fold and the “CIG49 expression, 1502 vs. 1502 5aza” value ([5]; ↑ increase) was 1.1↑ fold. The “Interferon-induced 17-kDa/15-kDA expression, 1502 vs. 1502 5aza” value ([5]; ↑ increase) was 1.8↑ fold, the “Interferon-inducible protein p78 expression, 1502 vs. 1502 5aza” value ([5]; ↑ increase) was 1.8↑ fold and the “Interferon-regulatory factor 7B expression, 1502 vs. 1502 5aza” value ([5]; ↑ increase) was 1.5↑ fold. For the same compound, the “STAT 1, 91 kD expression, 1502 vs. 1502 5aza” value ([5]; ↑ increase) was 1.8↑ fold, the “Interferon-inducible 56 kDa protein expression, 1502 vs. 1502 5aza” value ([5]; ↓ decrease) was 1.2↓ fold and the “Interferon-inducible membrane protein 9-27 (IFITM1) expression, 1502 vs. 1502 5aza” value ([5]; ↓ decrease) was 1.8↓ fold. The “MGSF expression, 1502 vs. 1502 5aza” value ([5]; ↓ decrease) was 3.2↓ fold, the “MIF expression, 1502 vs. 1502 5aza” value ([5]; ↓ decrease) was 1.7↓ fold and the “NDN expression, 1502 vs. 1502 5aza” value ([5]; ↓ decrease) was 1.4↓ fold.
